Experimental data published in patent publication US20220017516A1, “LOX INHIBITORS” (THE INSTITUTE OF CANCER RESEARCH: ROYAL CANCER HOSPITAL, priority 2018, published 2022).
pIC50: −log10 of the molar value.

Assays:
[1] = target: T1, monoamine oxidase A (MAO-A) (Homo sapiens, UniProt P21397); assay: Amine oxidase activity assay (MAO-Glo), MAO-A; type: biochemical
T1 construct: purchased Promega V1452
T1 sequence (P21397 1-527): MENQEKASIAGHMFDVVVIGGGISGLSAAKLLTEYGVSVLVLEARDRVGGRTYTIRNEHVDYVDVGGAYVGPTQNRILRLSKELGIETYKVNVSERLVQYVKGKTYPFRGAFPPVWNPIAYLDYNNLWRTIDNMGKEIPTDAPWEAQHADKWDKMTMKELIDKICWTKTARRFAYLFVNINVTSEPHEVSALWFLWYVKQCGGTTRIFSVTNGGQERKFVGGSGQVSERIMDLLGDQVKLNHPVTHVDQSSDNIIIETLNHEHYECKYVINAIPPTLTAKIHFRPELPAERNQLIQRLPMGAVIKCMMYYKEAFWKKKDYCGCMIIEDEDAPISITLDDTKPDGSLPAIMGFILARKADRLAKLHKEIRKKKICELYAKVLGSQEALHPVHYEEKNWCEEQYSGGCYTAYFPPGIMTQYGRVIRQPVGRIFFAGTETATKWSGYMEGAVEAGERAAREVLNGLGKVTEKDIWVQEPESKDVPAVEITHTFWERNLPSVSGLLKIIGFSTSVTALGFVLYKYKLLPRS
Description: The Promega MAO-Glo assay kit (V1402) was used to assess monoamine oxidase A (MAO-A) and monoamine oxidase B (MAO-B) activity. MAO substrate was prepared at 80 μM with the specific MAO-A/B reaction buffer. Overall, 0.5 μl test compound was added to 25 μl MAO substrate at 100, 30, 10, 3, 1, 0.3, 0.1, 0.03, 0.01 and 0.003 μM (final concentration) in a 96-well white, flat bottom plate. Overall, 25 μl of 1:520 dilution of MAO-A enzyme (Promega, V1452) or 25 μl of 1:52 dilution of MAO-B enzyme (Sigma, M7441) in specific MAO-A/B reaction buffer was added to each well (enzyme prepared at 2×final concentration) and plates were incubated for 1 h at room temperature. Finally, 50 μl per well luciferin detection reagent was added and plates were incubated for 20 min at room temperature, protected from light. Luminescence was measured with an integration time of 500 ms per well using a SpectaMax M5 plate reader and resulting IC50 values were calculated using GraphPad Prism software.
(§1) In another setting, the DAO and MAO assays were performed in 384-well plates (Greiner) and test compound was added using a Labcyte Echo™ Acoustic Handler for the same final concentrations as in the 96-well setting. Luminescence was measured with BMG LABTECH PHERAstar FS plate reader.

[2] = target: T2, diamine oxidase (DAO) (Sus scrofa, UniProt Q9TRC7); assay: Diamine oxidase catalytic activity assay (ROS Glo); type: biochemical
T2 construct: purchased Sigma
T2 sequence (Q9TRC7 25-755): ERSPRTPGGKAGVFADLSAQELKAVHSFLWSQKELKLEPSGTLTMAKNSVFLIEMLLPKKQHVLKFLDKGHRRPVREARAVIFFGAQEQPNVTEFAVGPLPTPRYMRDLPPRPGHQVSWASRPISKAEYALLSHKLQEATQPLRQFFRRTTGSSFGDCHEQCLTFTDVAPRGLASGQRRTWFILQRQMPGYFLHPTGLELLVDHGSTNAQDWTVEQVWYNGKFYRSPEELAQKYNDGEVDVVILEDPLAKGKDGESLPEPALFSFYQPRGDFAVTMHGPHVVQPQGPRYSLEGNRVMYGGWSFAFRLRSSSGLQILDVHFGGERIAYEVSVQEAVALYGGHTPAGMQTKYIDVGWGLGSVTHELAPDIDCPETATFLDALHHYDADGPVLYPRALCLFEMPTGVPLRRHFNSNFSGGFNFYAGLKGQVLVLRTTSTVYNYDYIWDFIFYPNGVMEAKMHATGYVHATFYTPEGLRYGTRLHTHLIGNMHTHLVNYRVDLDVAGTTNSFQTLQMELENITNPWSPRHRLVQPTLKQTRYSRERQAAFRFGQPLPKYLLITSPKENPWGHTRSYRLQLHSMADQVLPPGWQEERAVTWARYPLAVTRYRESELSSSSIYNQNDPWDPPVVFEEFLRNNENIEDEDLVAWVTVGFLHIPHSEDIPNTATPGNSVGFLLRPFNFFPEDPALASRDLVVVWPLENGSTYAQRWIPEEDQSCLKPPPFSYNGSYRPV
Description: The diamine oxidase (DAO) catalytic activity was determined using the Promega ROS Glo assay kit (G8821); DAO was purchased from Sigma and cadaverine dihydrochloride was used as the substrate at a concentration of 97.8 mM. The concentrations of the chemical inhibitors were the same as in the MAO assays. Luminescence was measured with an integration time of 500 ms/well using a SpectaMax M5 plate reader and resulting IC50 values were calculated using GraphPad Prism software.
as §1

[3] = target: T3, LOX (Sus scrofa, UniProt P45845); assay: LOX isoform activity assay (ROS Glo), LOX; type: biochemical, pig; settings: 1 h incubation with enzyme
T3 construct: LOX was extracted from pig skin by previously described methods; from tissue; host or cells: pig skin
T3 sequence (P45845 1-249): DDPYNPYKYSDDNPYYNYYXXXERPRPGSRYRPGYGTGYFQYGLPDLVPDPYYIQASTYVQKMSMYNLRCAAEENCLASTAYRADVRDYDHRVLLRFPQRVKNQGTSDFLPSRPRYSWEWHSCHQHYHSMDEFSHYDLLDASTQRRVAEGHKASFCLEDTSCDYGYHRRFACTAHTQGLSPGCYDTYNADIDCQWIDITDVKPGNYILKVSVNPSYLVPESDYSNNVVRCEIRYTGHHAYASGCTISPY
How it was run: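 Pig-skin LOX or recombinant LOXL3 preincubated 1 h with compound (100-0.003 μM final) in pH 9 CHES buffer containing 1 M urea. Then 19.56 mM cadaverine plus 25 μM H2O2 added, 1.5 h (LOX) or 1 h (LOXL3) at room temperature. ROS-Glo luminescence; IC50 from curve fit.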

| pIC50 [1] | pIC50 [2] | pIC50 [3] | SMILES |
| --- | --- | --- | --- |
| < 4.00 | < 4.00 | – | NCCS(=O)(=O)CC(=O)N1CCN(c2ncccn2)CC1 [Example 12, 2-((2-Aminoethyl)-sulfonyl)-1-(4-(pyrimidin-2-yl)-piperazin-1-yl)ethan-1-one] |
| < 4.00 | < 4.00 | < 4.00 | CCOc1ccc(N2C[C@@H]3C[C@H]2CN3C(=O)C2(S(=O)(=O)CCN)CC2)cc1 [Example 42, (1-((2-Aminoethyl)sulfonyl)cyclopropyl)((1S,4S)-5-(4-ethoxyphenyl)-2,5-diazabicyclo[2.2.1]heptan-2-yl)methanone] |
| < 4.00 | – | – | CCOc1ccc(N2CC3CN(CCS(=O)(=O)CCN)CC3C2)cc1 (stereo not shown) [Example 4, 2-((2-(5-(4-ethoxyphenyl)hexahydropyrolo [3,4-c]pyrrol-2(1H)-yl)ethyl)sulfonyl)ethan-1-amine] |
| < 4.00 | < 4.00 | – | Cc1ccc(S(=O)(=O)N2C[C@H]3CN(C(=O)CS(=O)(=O)CCN)C[C@H]3C2)cc1 [Example 11, 2-((2-aminoethyl)-sulfonyl)-1-(cis-5-tosylhexahydro-pyrrolo[3,4-c]pyrrol-2(1H)-yl)ethan-1-one] |
| < 4.00 | < 4.00 | 4.39 | CCOC(=O)CCC(C(=O)N1C[C@@H]2C[C@H]1CN2c1ccc(OCC)cc1)S(=O)(=O)CCN (stereo partly drawn) [Example 41, ethyl 4-((2-aminoethyl)sulfonyl)-5-((1S,4S)-5-(4-ethoxyphenyl)-2,5-diazabicyclo[2.2.1]heptan-2-yl)-5-oxopentanoate] |
| < 4.00 | < 4.00 | – | CCOc1ccc(N2C[C@@H]3C[C@H]2CN3CCS(=O)(=O)CCN)cc1 [Example 2, 2-((2-((1S,4S)-5-(4-ethoxyphenyl)-2,5-diazabicyclo[2.2.1]heptan-2-yl)ethyl)sulfonyl)-ethan-1-amine] |
| < 4.00 | < 4.00 | 4.60 | NCCS(=O)(=O)CC(=O)N1CCN(c2ccccc2)CC1 [Example 13, 2-((2-Aminoethyl)-sulfonyl)-1-(4-phenylpiperazin-1-yl)ethan-1-one] |

| SMILES | pIC50 [1] | pIC50 [2] | pIC50 [3] |
| --- | --- | --- | --- |
| CCOc1ccc(N2C[C@H]3CN(C(=O)NCCS(=O)(=O)CCN)C[C@@H]2C(C)(C)C3)cc1 [Example 38, (1S,5S)—N-(2-((2-aminoethyl)sulfonyl)ethyl)-6-(4-ethoxyphenyl)-9,9-dimethyl-3,6-diazabicyclo[3.2.2]nonane-3-carboxamide] | – | < 4.00 | 5.06 |
| CCOc1ccc(N2C[C@@H]3C[C@H]2CN3C(=O)CS(=O)(=O)CCN)cc1 [Example 8, 2-((2-aminoethyl)-sulfonyl)-1-((1S,4S)-5-(4-ethoxyphenyl)-2,5-diazabicyclo-[2.2.1]heptan-2-yl)-ethan-1-one] | < 4.00 | < 4.00 | – |
| CCOc1ccc(N2C[C@H]3CN(CCS(=O)(=O)CCN)C[C@@H]2C(C)(C)C3)cc1 [Example 1, 2-((2-((1R,5S)-6-(4-ethoxyphenyl)-9,9-dimethyl-3,6-diazabicyclo[3.2.2]nonan-3-yl)ethyl)sulfonyl)ethan-1-amine] | < 4.00 | < 4.00 | – |
| CCOc1ccc(N2C[C@H]3CN(C(=O)CS(=O)(=O)CCN)C[C@@H]2C(C)(C)C3)cc1 [Example 7, 2-((2-aminoethyl)sulfonyl)-1-((1S,5S)-6-(4-ethoxyphenyl)-9,9-dimethyl-3,6-diazabicyclo[3.2.2]nonan-3-yl)ethan-1-one] | < 4.00 | < 4.00 | – |
| CCOc1ccc(N2C[C@H]3CN(c4ccc(S(=O)(=O)CCN)cc4)C[C@@H]2C(C)(C)C3)cc1 [Example 33, 2-((4-((1R,5S)-6-(4-ethoxyphenyl)-9,9-dimethyl-3,6-diazabicyclo [3.2.2]nonan-3-yl)phenyl)sulfonyl)ethan-1-amine] | < 4.00 | – | – |
